What all share (assay type): cell-based
One test has as its target D(1A) dopamine receptor (Homo sapiens, UniProt P21728). Nature of the test: Displacement of [3H]SCH23390 from human D1 receptor expressed in HEK293 cells.
In the next test the target is D(2) dopamine receptor (Homo sapiens, UniProt P14416). As to the kind of experiment: Displacement of [3H]raclopride from human D2L receptor expressed in HEK293 cells.
The target in a further test is D(3) dopamine receptor (Homo sapiens, UniProt P35462). As to the kind of experiment: Displacement of [3H]raclopride from human D3 receptor expressed in HEK293 cells. (In general: Displacement assays read how much labelled ligand stays bound in the presence of the test substance.)
Sequence of D(3) dopamine receptor (P35462 whole entry): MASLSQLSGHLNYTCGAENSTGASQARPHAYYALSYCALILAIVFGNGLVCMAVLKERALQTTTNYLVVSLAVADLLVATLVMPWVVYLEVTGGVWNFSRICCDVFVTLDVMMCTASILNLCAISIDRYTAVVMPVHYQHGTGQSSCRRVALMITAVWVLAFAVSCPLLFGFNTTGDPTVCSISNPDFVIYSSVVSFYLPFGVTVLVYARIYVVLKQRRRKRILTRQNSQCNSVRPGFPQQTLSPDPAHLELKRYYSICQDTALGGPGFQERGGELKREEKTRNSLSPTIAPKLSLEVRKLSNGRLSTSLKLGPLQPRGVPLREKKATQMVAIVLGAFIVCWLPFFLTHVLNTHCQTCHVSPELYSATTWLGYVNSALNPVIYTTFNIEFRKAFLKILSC

In ChEMBL document CHEMBL2062374, “Chemoenzymatic synthesis and evaluation of 3-azabicyclo[3.2.0]heptane derivatives as dopaminergic ligands” (Eur J Med Chem, 2012) one finds Ki data, which are given here for 14 compounds.

Bounds are passed on as bounds.

Sequence of D(1A) dopamine receptor (P21728 whole entry): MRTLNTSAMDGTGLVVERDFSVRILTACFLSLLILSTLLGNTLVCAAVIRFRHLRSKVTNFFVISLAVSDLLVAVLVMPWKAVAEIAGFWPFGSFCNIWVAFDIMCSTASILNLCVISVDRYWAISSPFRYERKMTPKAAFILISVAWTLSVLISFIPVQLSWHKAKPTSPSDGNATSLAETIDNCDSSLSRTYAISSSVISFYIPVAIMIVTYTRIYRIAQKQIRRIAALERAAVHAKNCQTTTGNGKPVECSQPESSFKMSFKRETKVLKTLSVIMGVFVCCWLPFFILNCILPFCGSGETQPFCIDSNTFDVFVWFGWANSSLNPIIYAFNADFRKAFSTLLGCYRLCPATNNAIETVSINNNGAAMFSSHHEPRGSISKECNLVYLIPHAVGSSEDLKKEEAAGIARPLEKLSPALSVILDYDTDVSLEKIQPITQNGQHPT
Sequence of D(2) dopamine receptor (P14416 whole entry): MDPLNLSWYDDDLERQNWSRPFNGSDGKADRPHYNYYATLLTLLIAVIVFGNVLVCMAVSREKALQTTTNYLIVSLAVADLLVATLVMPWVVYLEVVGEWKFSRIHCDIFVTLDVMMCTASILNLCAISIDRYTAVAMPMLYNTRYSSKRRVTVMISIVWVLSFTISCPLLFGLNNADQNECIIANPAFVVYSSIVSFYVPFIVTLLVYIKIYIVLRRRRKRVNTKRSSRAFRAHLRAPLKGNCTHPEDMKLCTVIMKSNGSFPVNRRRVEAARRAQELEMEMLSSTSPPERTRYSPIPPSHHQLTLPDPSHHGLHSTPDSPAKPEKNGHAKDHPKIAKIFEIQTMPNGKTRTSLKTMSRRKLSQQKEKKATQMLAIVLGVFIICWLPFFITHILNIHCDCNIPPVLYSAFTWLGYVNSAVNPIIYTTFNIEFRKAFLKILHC

The Ki is the equilibrium dissociation constant of an inhibitor or competing ligand from its target. A higher Ki goes with weaker binding. Regarding `OC[C@H]1[C@H]2CN(Cc3ccccc3)[C@H](c3ccccc3)[C@H]2[C@@H]1N1CCCCC1`, the Ki at D(1A) dopamine receptor is 44 µM; on D(2) dopamine receptor, 7 µM; at D(3) dopamine receptor, 5.3 µM.
In the same order, the values of `CCN(CC)[C@@H]1[C@@H](CO)[C@H]2CN(Cc3ccccc3)[C@H](c3ccc(Br)cc3)[C@H]21` are 7 µM, 5 µM and 7.93 µM.
Regarding `CCN(CC)[C@@H]1[C@@H](CO)[C@H]2CN(Cc3ccccc3)[C@H](C)[C@H]21`, the Ki at D(1A) dopamine receptor was > 100 µM; on D(2) dopamine receptor it was 38 µM; on D(3) dopamine receptor, 21 µM.
On the same counts, the results for `CCN(CC)[C@H]1[C@H](CO)[C@@H]2CN(Cc3ccccc3)[C@@H](c3ccccn3)[C@@H]21` are > 100 µM, 12 µM and 8.8 µM.
Turning to `OC[C@H]1[C@H]2CN(Cc3ccccc3)[C@H](c3ccccc3)[C@H]2[C@@H]1N1CCCC1`, the values for the Ki at D(1A) dopamine receptor, at D(2) dopamine receptor and at D(3) dopamine receptor were 40.8 µM, 7.4 µM and 11 µM, respectively.
In the same order, the values of `C[C@@H]1[C@@H]2[C@H](CN1Cc1ccccc1)[C@H](CO)[C@H]2N1CCCC1` are > 100 µM, 66 µM and 36 µM.
On to `CCN(CC)[C@H]1[C@H](CO)[C@@H]2CN(Cc3ccccc3)[C@@H](c3ccc(Br)cc3)[C@@H]21`, for which the Ki on D(1A) dopamine receptor came to 8 µM; on D(2) dopamine receptor it was 2 µM; on D(3) dopamine receptor it was 2.14 µM.
In the same order, the values of `CCN(CC)[C@H]1[C@H](CO)[C@@H]2CN(Cc3ccccc3)[C@@H](c3ccccc3)[C@@H]21` are 22 µM, 1.7 µM and 1.3 µM.
On the same counts, the results for `OC[C@@H]1[C@@H]2CN(Cc3ccccc3)[C@@H](c3ccccc3)[C@@H]2[C@H]1N1CCCCC1` are 49 µM, 2 µM and 1.5 µM.
On the same counts, the results for `OC[C@@H]1[C@@H]2CN(Cc3ccccc3)[C@@H](c3ccccc3)[C@@H]2[C@H]1N1CCCC1` are 22 µM, 0.25 µM and 0.28 µM.
Regarding `CCN(CC)[C@H]1[C@H](CO)[C@@H]2CN(Cc3ccccc3)[C@@H](C)[C@@H]21`, the results for the Ki at D(1A) dopamine receptor, at D(2) dopamine receptor and on D(3) dopamine receptor were > 100 µM, 3.9 µM and 1.77 µM, respectively.
`CCN(CC)[C@@H]1[C@@H](CO)[C@H]2CN(Cc3ccccc3)[C@H](c3ccccc3)[C@H]21`: the Ki was 42 µM at D(1A) dopamine receptor, 12 µM on D(2) dopamine receptor and 13.2 µM at D(3) dopamine receptor.
On the same counts, the results for `CCN(CC)[C@@H]1[C@@H](CO)[C@H]2CN(Cc3ccccc3)[C@H](c3ccccn3)[C@H]21` are > 100 µM, 42 µM and 36 µM.
On the same counts, the results for `C[C@H]1[C@H]2[C@@H](CN1Cc1ccccc1)[C@@H](CO)[C@@H]2N1CCCC1` are > 100 µM, 16 µM and 11 µM.
